Experimental findings from US20050036994A1, “Compounds and methods for downregulating the effects of TGF-beta” (priority 2003, published 2005) are described below.

The subject of assay [1] is pericellular cathepsin B. Kind of assay: Pericellular cathepsin B assay with partially purified AHSG or concentrated spent media of infected HEK293 cells (FIG. 8). It is filed as biochemical. The settings on record: for inhibition of pericellular cathepsin B activity: FIG. 8.
Description: 50 μl of the cell suspension was added to a black walled 96 well plate (ThermoLabsystems, Part No. 8220, Vantaa, Finland). The appropriate concentration of inhibitors of cathepsin B, purified AHSG or concentrated media were diluted in 5 μl of PAB and the added to the cell suspension in each of the 96 wells. The plate was pre-incubated at 40° C. for 30 min. The reaction was started by adding 50 μl of a 200 μM solution of z-Arg-Arg-AMC (EMD Biosciences Inc, Darmstadt, Germany), a fluorogenic peptide that is lysed by cathhepsin B. This substrate was dissolved in PAB and pre-incubated at 40° C. prior to use. Hydrolytic activity of cathepsin B produces free AMC from the substrate peptide resulting in increased fluorescence. The intensity of fluorescence was measured using ThermoLabsystems Fluoroskan microplate reader with a 355 nm excitation filter and a 420 nm emission filter. The stock solution of z-Arg-Arg-AMC was dissolved in DMSO at the concentration of 10 mM and stored in −80° C. The Cathepsin B specific inhibitors CA-074 and Ac-LVK-CHO (EMD Biosciences Inc., Darmstadt, Germany) were dissolved in H2O at the concentration of 10 mM, aliquoted and stored in −80° C.
HEK 293 cells were subcultured at the cell density of 40% confluence in the morning of the study. […] The next day culture medium was replaced with fresh D-MEM supplemented with 5% FCS and culture for 2 additional days. The culture medium was passed through a filter with the pore size of 0.22 micron and then stored at −80° C. […] A centrifugal filtration unit, NanoSep 100 (Pall Corporation, Ann Arbor, Mich.) were applied to collect the molecular weights lower than 100 kD. The 0.4 ml of the flow through fraction from NanoSep 100 was applied to Nanosep30 and the remaining protein on the filter membrane was re-suspended in 40 μl of PAB (Hank's balanced salt solution without sodium bicarbonate, 0.6 mM MgCl2, 0.6 mM CaCl2, 2 mM 1-cystein and 25 mM PIPES adjusted pH to 7.0) The protein concentration was determined using Bradford reagent (Bio-Rad, Hercules, Calif.). The aliqouts of protein solution was flash frozen by liquid nitrogen and stored in −80° C. prior to use.
The target in assay [2] is T1, pericellular cathepsin B (Mus musculus, UniProt P10605).
T1 construct: These cells normally express cathepsin B; endogenous in cells; host or cells: Lewis lung carcinoma (LLC) cells, intact cell suspension, transfected with AHSG or empty vectors (not with cathepsin B)
Description: Pericellular cathepsin B assay (z-Arg-Arg-AMC) on transfected LLC cells. It is filed as biochemical. The settings on record: 25 nM inhibitor added to the assay. An excerpt:
In this example we used the fluorogenic substrate called z-Arg-Arg-AMC. […] The ability of this substrate to stay outside the cell allowed us to measure the enzymatic activity of pericellular cathepsin B (Hulkower, K. I. et al Eur J Biochem 267:4165 (2000). Many human and mouse cancer cell lines have cathepsin B activity on the cell surface.
To measure the effect of AHSG on the activity of cathepsin B, we expressed AHSG using expression vectors, pAAV-AHSG or pCDNA-AHSG that were used to transfect Lewis lung carcinoma (LLC) cells. These cells normally express cathepsin B (Hulkower, K. I. et al Eur J Biochem 267:4165 (2000)). Thus the addition of the substrate to the cells transfected with a non-specific vector lead to lysis of the peptide and the resulting level of cathepsin B activity was arbitrarily set at 100 (FIG. 7, left column). Cathepsin B activity following transfection with pAAV-AHSG was roughly 25% lower than that in control cells (FIG. 7, second column). Next 25 nM of a known inhibitor of cathepsin B, CA 074 was added to the assay. […] Despite the low transfection efficiency of LLC cells that ranged from 10 to 20% as measured using in situ staining of β-galactosidase activity, the observed reduction of the cathepsin B in the presence of AHSG supports the present invention that expression of AHSG suppresses cathepsin B activity on the cell surface. […]

T1 sequence (P10605 80-333): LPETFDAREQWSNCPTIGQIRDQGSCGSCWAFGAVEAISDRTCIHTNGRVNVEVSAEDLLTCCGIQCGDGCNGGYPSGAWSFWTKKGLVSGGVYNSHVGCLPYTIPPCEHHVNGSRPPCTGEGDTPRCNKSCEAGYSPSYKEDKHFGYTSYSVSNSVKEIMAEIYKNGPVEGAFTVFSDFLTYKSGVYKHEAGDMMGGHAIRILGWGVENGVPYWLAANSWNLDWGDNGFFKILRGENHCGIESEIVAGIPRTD

Regarding `CCCNC(=O)[C@H]1O[C@@H]1C(=O)N[C@H](C(=O)N1CCC[C@H]1C(=O)O)[C@@H](C)CC` [CA-074], in the assay with pericellular cathepsin B [1], the “inhibition of pericellular cathepsin B activity” value is reported as “inhibited activity of cathepsin B”. Further, the “inhibition of cathepsin B activity (words)” value against pericellular cathepsin B [2] is “inhibited cathepsin B activity”; against pericellular cathepsin B [2] (listed as CA 074) it was “expected inhibition of cathepsin B activity”.

B1: purchased AHSG: purchased AHSG (Sigma) partially purified from human plasma (protein, UniProt P02765 19-300; P02765 341-367, looked up)
Alpha-2-HS-glycoprotein chain … 1: APHGPGLIYRQPNCDDPETEEAALVAIDYINQNLPWGYKHTLNQIDEVKVWPQQPSGELFEIEIDTLETTCHVLDPTPVARCSVRQLKEHAVEGDCDFQLLKLDGKFSVVYAKCDSSPDSAEDVRKVCQDCPLLAPLNDTRVVHAAKAALAAFNAQNNGSNFQLEEISRAQLVPLPPSTYVEFTVSGTDCVAKEATEAAKCNLLAEKQYGFCKATLSEKLGGAEVAVTCMVFQTQPVSSQPQPEGANEAVPTPVVDPDAPPSPPLGAPGLPPAGSPPDSHVL
Alpha-2-HS-glycoprotein chain … 2: TVVQPSVGAAAGPVVPPCPGRIRHFKV
As to B1, the “inhibition of pericellular cathepsin B activity” value is listed as “inhibited completely the activity of cathepsin B” in the assay on pericellular cathepsin B [1] and “significant inhibition of pericellular cathepsin B activity” in the assay with pericellular cathepsin B [1] (listed as AHSG purchased from Sigma). Moreover, the “amount of protein required for complete inhibition, relative to the concentration of AHSG in the blood of adults (0.3 to 0.6 mg/ml)” value in the assay on pericellular cathepsin B [1] (one of the lots) is on record as “less than 10%”.
